Experimental data published in US11512074B2, “Substituted diamino heterocyclic carboxamide compound and a composition containing the compound and use thereof” (Shenzhen TargetRx, Inc., priority 2018, dated 2022).
Read-outs that look alike come from different tables or passages of the source.

Columns and labels:
Ba/F3 FLT3-ITD cells = assay: Inhibition of Ba/F3 FLT3-ITD cell proliferation (CTG); type: cell-based; conditions: 72 hours, read-out: BaF3 [FLT3-ITD] IC50
Experimental: (§1) Cell lines were cultured under the condition of 37° C., 5% CO2 and 95% humidity: cell line Ba/F3 parental (suspended, 3000 cells/well, medium was RPMI-1640+10% FBS+8 ng/ml IL-3), cell line Ba/F3 FLT3-ITD (suspended, 3000 cells/well, medium was RPMI-1640+10% FBS)
(§2) Reagents and materials: Fetal bovine serum (FBS, GBICO, Cat. No. 10099-141), CellTiter-Glo® Luminescent Cell Viability Assay (Promega, Cat. No. G7572), 96-well plate with transparent flat bottom and black walls (Corning®, Cat. No. 3603), control compound AC220 (Selleck, Cat. No. S1526).
(§3) Cell Culture and Inoculation: • 1. Cells in the logarithmic growth phase were harvested and counted using a platelet counter. The cell viability was determined by trypan blue exclusion method to ensure that the cell viability was greater than 90%; • 2. The cell concentration was adjusted and 90 μL of the cell suspension was added into a 96-well plate respectively; • 3. The cells in the 96-well plate were cultured overnight under the condition of 37° C., 5% CO2 and 95% humidity.
(§4) Drug Dilution and Dosing: • 1. The 10-fold drug solutions were prepared with a maximum concentration of 100 μM, which was diluted using a 3.16-fold serial gradient dilution, resulting in 9 concentrations. 10 μL of the drug solutions was added to each well of the 96-well plate inoculated with Ba/F3 parental cells; and each drug concentration was set in triplicate. • 2. The 10-fold drug solutions were prepared with a maximum concentration of 10 μM, which was diluted using a 3.16-fold serial gradient dilution, resulting in 9 concentrations. 10 μL of the drug solutions was added to each well of the 96-well plate inoculated with Ba/F3 FLT3-ITD cells; and each drug concentration was set in triplicate. • 3. The cells in the 96-well plate with drugs were cultured at 37° C., 5% CO2 and 95% humidity for 72 hours, and then CTG analysis was carried out.
(§5) Plate Reading at the End Point: • 1. CTG reagent was thawed and the cell plate was equilibrated to room temperature for 30 minutes; • 2. Equal volume of the CTG solution was added to each well; • 3. The cell plate was shaked on the orbital shaker for 5 minutes to lyse the cells; • 4. The cell plate was placed at room temperature for 20 minutes to stabilize the cold light signal; • 5. The cold light values were read.
(§6) GraphPad Prism 8.0 software was used to analyze the data, and the data was fitted using the non-linear S-curve regression to get a dose-effect curve, and IC50 values were calculated. Cell viability (%)=(Lum of test drug−Lum of medium control)/(Lum of cell control−Lum of medium control)×100%.

MV-4-11 cells = assay: Inhibition of cell MV-4-11 proliferation (CTG assay); type: cell-based; conditions: Homo sapiens, MV4-11, 72 hours
Excerpt: (§7) Cell MV-4-11 (ATCC, Cat. No. CRL-9591), cell MOLM-13 (COBIOER, Cat. No. CBP60678), RPMI-1640 (GIBCO, Cat. No. A10491-01), penicillin-streptomycin (GIBCO, Cat. No. 15140-122), fetal bovine serum (GIBCO, Cat. No. 10099-141), phosphate buffer solution PBS (GIBCO, Cat. No. 10010-031), DMSO (Sigma, Cat. No. D8418-1L), CelltiterGlo Assay kit (CTG) (Promega, Cat. No. G7573), 96-well plate with transparent flat bottom and black walls (PerkinElmer, Cat. No. 6005680-50), plate shaker (QILINBEIER, Cat. No. B-9002), centrifuge (Eppendorf, Cat. No. 5804R), CO2 incubator (Thermo Scientific, Cat. No. 371), microscope (OLYMPUS Cat. No. CKX41), multi-plate reader (PerkinElmer, Cat. No. EnVision).
(§8) (2) Preparation of Cell Suspension • a) The medium was collected from the culture bottle and centrifuged at 1000 rpm for 5 min. • b) The supernatant was discarded, and the cells were resuspended in medium containing 10% fetal bovine serum, and counted to prepare a cell suspension (cell viability was greater than 90%). • c) The cell suspension was added into a 96-well plate, with […] in each well, namely 5000 MV-4-11 cells/well; 5000 MOLM-13 cells/well. • d) The cell plate was cultured overnight in a 37° C., 5% CO2 incubator.
(§9) Dilution of Compounds in DMSO: • a) MV-4-11 cells: The compounds were diluted with DMSO from 10 mM to 60 uM, and then subjected to a 3-fold serial gradient dilution in DMSO from 60 uM, resulting in 9 concentrations. • b) MOLM-13 cells: The compounds were diluted with DMSO from 10 mM to 200 uM, and then subjected to a 3-fold serial gradient dilution in DMSO from 200 uM, resulting in 9 concentrations. • c) Compound Taxol was diluted with DMSO from 10 mM to 200 uM, and then subjected to a 3-fold serial gradient dilution in DMSO from 200 uM, resulting in 9 concentrations.
(§10) (4) Treatment of Cells with Compounds (after the Overnight Incubation of the Cell Plate) • a) Each well was replenished with 99 μl of growth medium containing 10% FBS, and then 1 μl of the diluted compound was added to the well. The concentration of DMSO was 0.5%. • b) Concentrations of the tested compounds were: MV-4-11 cells: 300, 100, 33.3, 11.1, 3.7, 1.23, 0.41, 0.137, 0.046, 0 [nM]. • MOLM-13 cells: 1000, 333.3, 111.1, 37.04, 12.35, 4.1, 1.37, 0.46, 0.15, 0 [nM]. • c) Concentrations of control compound Taxol were: 1000, 333.3, 111.1, 37.04, 12.35, 4.12, 1.37, 0.46, 0.15, 0 [nM]. • d) The cell plate was placed in the incubator for 72 hours.
(§11) (5) CTG Assay • a) The test plate was placed at room temperature and equilibrated for 30 minutes, and 60 μl of the culture medium was discarded. • b) 60 μl of CTG reagent (CelltiterGlo kit) was added, and the plate was placed on a rapid plate shaker to shake for 2 min, and then let it stand at room temperature for 20 min. • c) Envision was used to read the values.
(§12) IC50 values were calculated using GraphPad Prism 6 software. The IC50 (half inhibitory concentration) values of the compounds were obtained by the following non-linear fitting formula. Y=Bottom+(Top−Bottom)/(1+10^((Log IC50−X)*HillSlope)) • X: Log value of the compound concentration • Y: Inhibition rate (% inhibition) % inhibition (inhibition rate)=100*(value of the High Control-value of the test compound well)/(value of the High Control-value of the Low Control)

MOLM-13 cells = assay: Inhibition of cell MOLM-13 proliferation (CTG assay); type: cell-based; conditions: Homo sapiens, 72 hours, read-out: MOLM-1 IC50
Excerpt: as §7, §8, §9, §10, §11, §12

Ba/F3 parental cells = assay: Inhibition of Ba/F3 parental cell proliferation (CTG); type: cell-based; conditions: Mus musculus, BaF3, 72 hours, with IL-3
Experimental: as §1, §2, §3, §4, §5, §6

[1] = Pharmacokinetic experiment in rats; type: in vivo, Sprague-Dawley rats; conditions: rat; for AUC(0-t) / Cmax / Tmax / half-life / AUC(0-inf) / MRT inf: male, Sprague-Dawley, plasma; for AUC(0-inf): read-out: AUCINF_pred; for MRT inf: read-out: MRTINF_pred
Experimental: Six male Sprague-Dawley rats, 7 to 8 weeks old, weighing approximately 210 g, were divided into 2 groups with 3 rats in each group. The pharmacokinetic differences of the compounds were compared after they were administered to the rats at a single dose through vein (in vein 3 mg/kg) or mouth (orally 10 mg/kg).
The rats were fed with standard feed and water, and fasted 16 hours before the experiment. The drugs were dissolved with PEG400 and dimethyl sulfoxide. The blood samples were collected from eyelids at the time point of 0.083, 0.25, 0.5, 1, 2, 4, 6, 8, 12 and 24 hours after administration.
The rats were anesthetized for a short time after inhaling ether, and 300 μL of blood samples was collected from the eyelids and put into test tubes, which contains 30 μL of 1% heparin salt solution. The test tubes were dried overnight at 60° C. prior to use. After the blood sample collection at the last time point, the rats were sacrificed after the ether anesthesia.
Immediately after the collection of the blood samples, the test tubes were gently inverted at least 5 times to ensure the fully mixing and placed on ice. The blood samples were centrifuged at 4° C., 5000 rpm for 5 minutes to separate the plasma from the red blood cells. 100 μL of plasma was pipetted into a clean plastic centrifuge tube, with the name of the compound and time point on it. The plasma was stored at −80° C. before analysis, and LC-MS/MS was used to determine the concentration of the compounds disclosed herein in plasma. Pharmacokinetic parameters were calculated based on the plasma concentrations of each animal at different time points.

IC50 (Ba/F3 FLT3-ITD cells) | IC50 (MV-4-11 cells) | IC50 (MOLM-13 cells) | AUC(0-t) ([1]; IV 3 mg/kg) | Cmax ([1]; IV 3 mg/kg) | Tmax ([1]; IV 3 mg/kg) | half-life ([1]; IV 3 mg/kg) | AUC(0-inf) ([1]; IV 3 mg/kg) | MRT inf ([1]; IV 3 mg/kg) | AUC(0-t) ([1]; PO 10 mg/kg) | Cmax ([1]; PO 10 mg/kg) | Tmax ([1]; PO 10 mg/kg) | half-life ([1]; PO 10 mg/kg) | AUC(0-inf) ([1]; PO 10 mg/kg) | MRT inf ([1]; PO 10 mg/kg) | Vz_pred ([1]; IV 3 mg/kg) | Vz_pred ([1]; PO 10 mg/kg) | F ([1]; PO 10 mg/kg vs IV 3 mg/kg) | Compound | IC50 (Ba/F3 parental cells)
53.9 nM | 1.64 nM | 12.7 nM | – | – | – | – | – | – | – | – | – | – | – | – | – | – | – | [2H]C1([2H])CN(c2ccc(Nc3nc(NC4CCOCC4)c(CC)nc3C(N)=O)cc2OC)CC([2H])([2H])C1N1CCN(C)CC1 [Compound T-7, 6-ethyl-3-((3-methoxy-4-(4-(4-methylpiperazin-1-yl)piperidin-1-yl-3,3,5,5-d4)phenyl)amino)-5-((tetrahydro-2H-pyran-4-yl)amino)pyrazine-2-carboxamide] | 8430 nM
69.1 nM | 2.07 nM | 11.9 nM | – | – | – | – | – | – | – | – | – | – | – | – | – | – | – | [2H]C([2H])([2H])Oc1cc(Nc2nc(NC3CCOCC3)c(C([2H])([2H])C([2H])([2H])[2H])nc2C(N)=O)ccc1N1CCC(N2CCN(C)CC2)CC1 [Compound T-6, 6-(ethyl-d5)-3-((3-(methoxy-d3)-4-(4-(4-methylpiperazin-1-yl)piperidin-1-yl)phenyl)amino)-5-((tetrahydro-2H-pyran-4-yl)amino)pyrazine-2-carboxamide] | > 10000 nM
– | 1.92 nM | 13 nM | 639 ng·h/mL | 138 ng/mL | 0.08 h | 4.52 h | 651 ng·h/mL | 4.56 h | 666 ng·h/mL | 61.2 ng/mL | 4 h | 4.07 h | 687 ng·h/mL | 8.11 h | 30.45 L/kg | 87.60 L/kg | 31.26% | [2H]C([2H])([2H])C([2H])([2H])c1nc(C(N)=O)c(Nc2ccc(N3CCC(N4CCN(C)CC4)CC3)c(OC)c2)nc1NC1CCOCC1 [Compound T-4, 6-(ethyl-d5)-3-((3-methoxy-4-(4-(4-methylpiperazin-1-yl)piperidin-1-yl)phenyl)amino)-5-((tetrahydro-2H-pyran-4-yl)amino)pyrazine-2-carboxamide] | –
